Test results from patent publication US20250002463A1, “NEW SALT FORMS OF AMILORIDE AND ITS DERIVATIVES FOR PHARMACEUTICAL USE” (PSOMRI Holding AB, priority 2021, published 2025).

Legend:
[1] = Crystallinity of salt forms by HT-XRPD; assay type: physicochemical; conditions: salt screen solid forms
Procedure: The precipitated solids were analyzed by high throughput X-ray powder diffractometry (HT XRPD). Liquid phases (both solutions and mother liquors) were evaporated at ambient conditions and the residual solids were analyzed by HT XRPD.
XRPD patterns were obtained using the Ardena T2 high-throughput XRPD set-up. The plates were mounted on a Bruker General Area Detector Diffraction System (GADDS) equipped with a VÅNTEC-500 gas area detector corrected for intensity and geometric variations. The calibration of the measurement accuracy (peaks position) was performed using NIST SRM1976 standard (Corundum).
No background subtraction or curve smoothing was applied to the XRPD patterns.

[2] = Physical stability under Accelerated Aging Conditions (AAC, 40° C./75% RH, 2 days), HT-XRPD; conditions: for Physical Stability: AAC 40° C./75% RH, 2 days, re-analyzed by HT-XRPD; for physical stability upon exposure to AAC: Example 2; for physical stability upon exposure to AAC / Physically stable after AAC: 40° C./75% RH for 2 days; for Physically stable after AAC: Example 1
Procedure: The solids were separated from the liquid phases by centrifugation, dried overnight under vacuum at 50° C. and analyzed by HT-XRPD. Solvents from the remaining mother liquors and solutions were evaporated under ambient conditions (evaporative crystallization experiments) and the residual solids were analyzed by HT-XRPD.
Slurries of the amorphous solids (GEN9 and GEN16, respectively) were prepared in 15 solvents at room temperature. The suspensions were subjected to a temperature profile, which comprised of three heating and cooling cycles. At the end of the temperature profile, the solids were isolated by centrifugation and dried at ambient conditions and under vacuum at 50° C. Upon completion of all crystallization experiments, all solids were analyzed by HT-XRPD.

SMILES	Crystallinity [1]	Physical Stability [2]	physical stability upon exposure to AAC [2]	Physically stable after AAC [2]
NC(=NC(=O)c1nc(Cl)c(N)nc1N)NCc1ccccc1.O=C(O)CCCCC(=O)O [ADI1]	Good	Unstable	–	–
NC(=NC(=O)c1nc(Cl)c(N)nc1N)NCc1ccccc1.O=S(=O)(O)c1ccccc1 [BES1]	Good	Unstable	–	–
N=C(NCc1ccccc1)NC(=O)c1nc(Cl)c(N)nc1N.O=S(=O)(O)c1ccccc1 [BES2]	Good	Unstable	–	–
CCCC(=O)O.NC(=NC(=O)c1nc(Cl)c(N)nc1N)NCc1ccccc1 [BUT2]	Poor	Unstable	–	–
NC(=NC(=O)c1nc(Cl)c(N)nc1N)NCc1ccccc1.O=C(O)C=Cc1ccccc1 [CIN1]	Moderate	Stable	physically stable	–
NC(=NC(=O)c1nc(Cl)c(N)nc1N)NCc1ccccc1.O=C(O)C=Cc1ccccc1 [CIN2]	Good	Stable	physically stable	–
NC(=NC(=O)c1nc(Cl)c(N)nc1N)NCc1ccccc1.O=C(O)CC(O)(CC(=O)O)C(=O)O [CIT1]	Moderate/Poor	Unstable	–	–
NC(=NC(=O)c1nc(Cl)c(N)nc1N)NCc1ccccc1.O=C(O)CC(O)(CC(=O)O)C(=O)O [CIT2]	Good	–	–	–
Cl.Cl.N=C(NCc1ccccc1)NC(=O)c1nc(Cl)c(N)nc1N [Di-HCl1]	–	–	–	physically unstable
NC(=NC(=O)c1nc(Cl)c(N)nc1N)NCc1ccccc1.O=S(=O)(O)CCS(=O)(=O)O [EDY1]	Good	Unstable	–	–
NC(=NC(=O)c1nc(Cl)c(N)nc1N)NCc1ccccc1.O=S(=O)(O)CCS(=O)(=O)O [EDY2]	Good	Stable	physically stable	–
NC(=NC(=O)c1nc(Cl)c(N)nc1N)NCc1ccccc1.O=S(=O)(O)CCS(=O)(=O)O [EDY3]	Good	Stable	physically stable	–
NC(=NC(=O)c1nc(Cl)c(N)nc1N)NCc1ccccc1.NC(=NC(=O)c1nc(Cl)c(N)nc1N)NCc1ccccc1.O=S(=O)(O)CCS(=O)(=O)O [EDY4]	Good	Unstable	–	–
NC(=NC(=O)c1nc(Cl)c(N)nc1N)NCc1ccccc1.O=S(=O)(O)CCS(=O)(=O)O [EDY5]	Moderate	–	–	–
CCS(=O)(=O)O.NC(=NC(=O)c1nc(Cl)c(N)nc1N)NCc1ccccc1 [ESY1]	Good	Stable	physically stable	–
CCS(=O)(=O)O.NC(=NC(=O)c1nc(Cl)c(N)nc1N)NCc1ccccc1 [ESY3]	Poor	Unstable	–	–
CCS(=O)(=O)O.NC(=NC(=O)c1nc(Cl)c(N)nc1N)NCc1ccccc1 [ESY4]	Moderate	–	–	–
N=C(NCc1ccccc1)NC(=O)c1nc(Cl)c(N)nc1N.O=CO [FOR1]	Good	–	–	–
NC(=NC(=O)c1nc(Cl)c(N)nc1N)NCc1ccccc1.O=CO [FOR2]	Moderate/Poor	Unstable	–	–
NC(=NC(=O)c1nc(Cl)c(N)nc1N)NCc1ccccc1.O=CO [FOR4]	Good	–	–	–

SMILES	Crystallinity [1]	Physical Stability [2]	physical stability upon exposure to AAC [2]	Physically stable after AAC [2]
NC(=NC(=O)c1nc(Cl)c(N)nc1N)NCc1ccccc1.O=CO [FOR5]	Good	–	–	–
NC(=NCc1ccccc1)NC(=O)c1nc(Cl)c(N)nc1N.O=C(O)C=CC(=O)O [FUM1]	Good	Unstable	–	–
N=C(NCc1ccccc1)NC(=O)c1nc(Cl)c(N)nc1N.O=C(O)C=CC(=O)O [FUM2]	Good	Stable	physically stable	–
NC(=NC(=O)c1nc(Cl)c(N)nc1N)NCc1ccccc1.O=C(O)c1ccco1 [FUR1]	Good	Stable	physically stable	–
NC(=NC(=O)c1nc(Cl)c(N)nc1N)NCc1ccccc1.O=C(O)c1ccco1 [FUR2]	Good	–	–	–
NC(=NC(=O)c1nc(Cl)c(N)nc1N)NCc1ccccc1.O=C(O)c1ccco1 [FUR3]	Good	Unstable	–	–
NC(=NC(=O)c1nc(Cl)c(N)nc1N)NCc1ccccc1.O=C(O)c1cc(O)ccc1O [GEN1]	Moderate	Stable	physically stable	–
N=C(NCc1ccccc1)NC(=O)c1nc(Cl)c(N)nc1N.O=C(O)c1cc(O)ccc1O [GEN2]	Moderate	Stable	physically stable	–
NC(=NC(=O)c1nc(Cl)c(N)nc1N)NCc1ccccc1.O=C(O)c1cc(O)ccc1O [GEN3]	Moderate	Unstable	–	–
Br.Br.NC(=NC(=O)c1nc(Cl)c(N)nc1N)NCc1ccccc1 [HBR3]	Moderate	Unstable	–	–
Br.NC(=NC(=O)c1nc(Cl)c(N)nc1N)NCc1ccccc1 [HBR6]	Good	–	–	–
Br.N=C(NCc1ccccc1)NC(=O)c1nc(Cl)c(N)nc1N [HBR7]	Good	–	–	–
Br.N=C(NCc1ccccc1)NC(=O)c1nc(Cl)c(N)nc1N [HBR8]	Good	–	–	–
Br.NC(=NC(=O)c1nc(Cl)c(N)nc1N)NCc1ccccc1 [HBR10]	Moderate	Unstable	–	–
NC(=NC(=O)c1nc(Cl)c(N)nc1N)NCc1ccccc1.O=C(O)CNC(=O)c1ccccc1 [HIP1]	Good	Unstable	–	–
NC(=NC(=O)c1nc(Cl)c(N)nc1N)NCc1ccccc1.O=C(O)CNC(=O)c1ccccc1 [HIP2]	Poor	–	–	–
NC(=NC(=O)c1nc(Cl)c(N)nc1N)NCc1ccccc1.O=C(O)C=CC(=O)O [MAE2]	Good	Stable	physically stable	–
NC(=NC(=O)c1nc(Cl)c(N)nc1N)NCc1ccccc1.O=C(O)C=CC(=O)O [MAE3]	Moderate	Stable	physically stable	–
NC(=NC(=O)c1nc(Cl)c(N)nc1N)NCc1ccccc1.O=C(O)C[C@H](O)C(=O)O [MAL1]	Good	Stable	physically stable	–
N=C(NCc1ccccc1)NC(=O)c1nc(Cl)c(N)nc1N.O=C(O)CC(=O)O [MAO4]	Good	–	–	–

SMILES	Crystallinity [1]	Physical Stability [2]	physical stability upon exposure to AAC [2]	Physically stable after AAC [2]
CS(=O)(=O)O.NC(=NC(=O)c1nc(Cl)c(N)nc1N)NCc1ccccc1 [MES3]	Moderate	–	–	–
N=C(NCc1ccccc1)NC(=O)c1nc(Cl)c(N)nc1N.O=[N+]([O-])O [NIT1]	–	–	–	physically unstable
NC(=NCc1ccccc1)NC(=O)c1nc(Cl)c(N)nc1N.O=[N+]([O-])O [NIT2]	–	–	–	physically unstable
NC(=NC(=O)c1nc(Cl)c(N)nc1N)NCc1ccccc1.O=[N+]([O-])O [NIT4]	–	–	–	physically unstable
N=C(NCc1ccccc1)NC(=O)c1nc(Cl)c(N)nc1N.O=S(=O)(O)c1ccc2ccccc2c1 [NSA1]	Good	Unstable	–	–
NC(=NC(=O)c1nc(Cl)c(N)nc1N)NCc1ccccc1.O=S(=O)(O)c1ccc2ccccc2c1 [NSA2]	Moderate	Stable	physically stable	–
NC(=NCc1ccccc1)NC(=O)c1nc(Cl)c(N)nc1N.O=S(=O)(O)c1ccc2ccccc2c1 [NSA4]	Poor	Stable	physically stable	–
N=C(NCc1ccccc1)NC(=O)c1nc(Cl)c(N)nc1N.O=C(O)c1cc(=O)[nH]c(=O)[nH]1 [ORO1]	Good	Stable	physically stable	–
NC(=NCc1ccccc1)NC(=O)c1nc(Cl)c(N)nc1N.O=C(O)c1cc(=O)[nH]c(=O)[nH]1 [ORO2]	Good - poorly	Stable	physically stable	–
NC(=NC(=O)c1nc(Cl)c(N)nc1N)NCc1ccccc1.O=C(O)c1cc(=O)[nH]c(=O)[nH]1 [ORO3]	Poor	Poor-	–	–
NC(=NC(=O)c1nc(Cl)c(N)nc1N)NCc1ccccc1.O=C(O)c1cc2ccccc2c(Cc2c(O)c(C(=O)O)cc3ccccc23)c1O [PAM4]	Poor	–	–	–
N=C(NCc1ccccc1)NC(=O)c1nc(Cl)c(N)nc1N.O=P(O)(O)O [PHO1]	–	–	–	physically unstable
CCC(=O)O.NC(=NC(=O)c1nc(Cl)c(N)nc1N)NCc1ccccc1 [PRO5]	Moderate	–	–	–
NC(=NC(=O)c1nc(Cl)c(N)nc1N)NCc1ccccc1.O=C(O)c1ccccc1O [SAL2]	Poor	–	–	–
NC(=NC(=O)c1nc(Cl)c(N)nc1N)NCc1ccccc1.O=S(=O)(O)O [SUL2]	–	–	–	physically unstable
Cc1ccc(S(=O)(=O)O)cc1.N=C(NCc1ccccc1)NC(=O)c1nc(Cl)c(N)nc1N [TOS2a]	–	–	–	physically unstable
Cc1ccc(S(=O)(=O)O)cc1.N=C(NCc1ccccc1)NC(=O)c1nc(Cl)c(N)nc1N [TOS3]	–	–	–	physically stable
CCCCC(=O)O.NC(=NC(=O)c1nc(Cl)c(N)nc1N)NCc1ccccc1 [VAL2]	Poor	–	–	–
